Test results: paper PMC10817097, “Caffeic Acid Phosphanium Derivatives: Potential Selective Antitumor, Antimicrobial and Antiprotozoal Agents” (International Journal of Molecular Sciences, 2024)
Values after ≈ are worked out from the molar mass of the structure shown. Values joined by “and” are separate entries in the source; they are usually repeats but may differ in a detail not shown here. Identical values can stand only once. Like-named read-outs stand apart in the source and are kept apart here.

What was measured:
[1] = design: method as in PMID 11743793; conditions: cited from earlier work
[2] = test system: non-pathogenic Neff's strain of Acanthamoeba castellanii; design: method as in Sifaoui et al. (2017) 44; conditions: A. castellanii Neff, 96 h of incubation, ref Sifaoui et al. (2017) 44; cited from earlier work
[3] = test system: Candida albicans CCM 8267; assay: Broth dilution MIC and MFC for yeasts; format: cell-based; conditions: for MIC: CCM8267, C. albicans CCM 8267; for MFC: CCM8267, C. albicans CCM 8267, inactivating 99.9% of inoculum
Protocol: The antimicrobial activity of caffeic acid and its semi-synthetic derivates was tested against Gram-positive (Staphylococcus aureus CCM 4750, methicillin-resistant; Staphylococcus aureus CCM 4223, methicillin-susceptible; Enterococcus faecalis CCM 4224) and Gram-negative bacteria (Pseudomonas aeruginosa CCM 3955; Escherichia coli CCM 3954; Klebsiella pneumoniae CCM 4415; Proteus mirabilis CCM 7188), and one strain of a yeast Candida albicans (CCM 8267). Microbial strains were purchased from the Czech Collection of Microorganisms, Brno, Czech Republic, and preserved in aliquots in cryoprotective media at −20 °C until the testing. Revival of cryoprotected bacteria took place by overnight cultivation on blood agar and an additional passage on blood agar. Minimal inhibitory concentrations (MIC) against bacteria were detected by broth microdilution test in sterile 96-well U-shaped microtiter plates (Roll s.a.s., Piove di Sacco, Italy) according to the EUCAST recommendations. The test was performed in 100 μL volumes in microtiter plate wells with a final bacterial concentration of 5 × 10^5 CFU·mL^−1. Antifungal activity testing was performed according to the EUCAST-recommended method for the determination of broth dilution minimum inhibitory concentrations of antifungal agents for yeasts, with some modifications. The final yeast concentration in the test wells was 10^4 CFU·mL^−1. The minimal bactericidal/fungicidal concentrations (MBC/MFC) were detected by point-inoculation of 5 μL aliquots from test wells without visible growth on solid agar media free of antimicrobials. Mueller–Hinton broth and agar were used for bacteria, and Sabouraud dextrose broth and agar for fungi (OXOID, Basingstoke, Hampshire, UK). The tested agents were dissolved in 50% ethanol, and serial dilutions were prepared in the test medium to obtain final concentrations ranging from 5000 to 5 μg·mL^−1, which corresponds to 27,753—54 μM for caffeic acid, 7251—14 μM for CAP 6, 6967—14 μM for CAP 8, 6705—13 μM for CAP 10 and 6462—13 μM for CAP 12. Wells with media free of bacteria served as sterility control and wells with bacteria without antimicrobial agents were used as growth control. The MIC was determined to be the lowest concentration of the antimicrobial agent inhibiting the growth of the tested microorganism, and the MBC/MFC was determined to be the lowest concentration, inactivating 99.9% of microbial inoculum. All tests were performed in three independent runs to exclude possible excessive values due to permissible measurement error.

[4] = test system: Acanthamoeba trophozoites; assay: Amoebicidal activity assay, both strains; format: cell-based
Protocol: The activity against two clinical isolates of free-living amoebae, Acanthamoeba lugdunensis (strain AcaVNAK02) and Acanthamoeba quina (strain AcaVNAK03), both belonging to the T4 genotype, was tested in vitro as previously described. The trophozoites were cultivated in 25 cm^2 tissue culture flasks under axenic conditions in peptone-yeast extract-glucose medium (PYG). The cultivation was carried out under aerobic conditions at laboratory temperature. For the experiments, a fresh 72 h culture was used. Acanthamoebae adherent to flasks represented the trophozoite form and was used in the subsequent assay. Experiments were carried out in 96-well microtiter plates under sterile conditions at 37 °C. Each well was seeded with 100 µL (2 × 10^5 cells mL^−1) of a trophozoite suspension. Then, 100 µL of a freshly prepared medium containing a tested compound at 6 different concentrations was added to all wells, except for the untreated control wells that received 100 µL of the pure medium. Each compound was tested at final concentrations of 500, 250, 125, 62.5, 31.25, and 15.6 µM. The reduction of trophozoites was recorded after 24 h by counting the surviving cells in a Bürker–Türk hemocytometer. […] The viability of trophozoites was determined by trypan blue exclusion. […]

[5] = test system: the other tested bacteria and the strain of Candida albicans; assay: MIC/MBC, other tested bacteria and Candida albicans; format: cell-based; conditions: listed as caffeic acid
Protocol: The antimicrobial activity of caffeic acid and its semi-synthetic derivates was tested against Gram-positive (Staphylococcus aureus CCM 4750, methicillin-resistant; Staphylococcus aureus CCM 4223, methicillin-susceptible; Enterococcus faecalis CCM 4224) and Gram-negative bacteria (Pseudomonas aeruginosa CCM 3955; Escherichia coli CCM 3954; Klebsiella pneumoniae CCM 4415; Proteus mirabilis CCM 7188), and one strain of a yeast Candida albicans (CCM 8267). Microbial strains were purchased from the Czech Collection of Microorganisms, Brno, Czech Republic, and preserved in aliquots in cryoprotective media at −20 °C until the testing. Revival of cryoprotected bacteria took place by overnight cultivation on blood agar and an additional passage on blood agar. Minimal inhibitory concentrations (MIC) against bacteria were detected by broth microdilution test in sterile 96-well U-shaped microtiter plates (Roll s.a.s., Piove di Sacco, Italy) according to the EUCAST recommendations. The test was performed in 100 μL volumes in microtiter plate wells with a final bacterial concentration of 5 × 10^5 CFU·mL^−1. […] The minimal bactericidal/fungicidal concentrations (MBC/MFC) were detected by point-inoculation of 5 μL aliquots from test wells without visible growth on solid agar media free of antimicrobials. […]

[6] = Equilibrium surface tension measurements (Wilhelmy plate); format: physicochemical; conditions: 25 °C; for cmc (critical micelle concentration) / γcmc (surface tension at the cmc): aqueous solution; for Acmc (surface area per head group at surface saturation): water/air interface, from Gibbs adsorption isotherm
Protocol: The physicochemical properties of the compounds were investigated by the measurements of surface tension of their aqueous solutions. The critical micelle concentration (cmc), the surface tension value at the cmc (γcmc), and the surface area per head group at the surface saturation (Acmc) were determined.
The equilibrium surface tension measurements were carried out according to the procedure described previously. The Wilhelmy plate technique was used for the determination of the solvent surface tension values. Measurements were performed with a Krüss 100 MK2 tensiometer. All samples were prepared by dissolving amphiphilic compounds in deionized water. The stock solutions were prepared in a volumetric flask. The measurements were performed at 25 ± 0.1 °C. The measurements of equilibrium surface tension were taken repeatedly. The values were recorded every 360 s. The measurement was stopped if the difference between the values of two successive measurements was less than 5 × 10^−5 N·m^−1. The breakpoint of the linear parts of the surface tension vs. log c curve was used for the determination of the critical micelle concentration (cmc) and surface tension at the cmc (γcmc). The adsorbed amount of surfactant Γcmc was also determined from surface tension data. The value was calculated using the Gibbs adsorption isotherm: Γcmc=dγ/dlogcT/2.303iRT where γ represents the surface tension (mN/m), c is the concentration of surfactant, i represents the prefactor (CAP have i = 2), R is the gas constant, and T represents the absolute temperature. The slope below the cmc in the surface tension vs. log c plots was used for the determination of the surface excess. The values of area per head group at the water/air interface (Acmc) were obtained from the following equation: Acmc=10^18/NAΓcmc where NA represents the Avogadros constant.

| MIC [3] | MIC/MBC [5] | cmc (critical micelle concentration) [6] | γcmc (surface tension at the cmc) [6] | Acmc (surface area per head group at surface saturation) [6] | Structure (SMILES) | plasma levels of caffeic acid ([1]; 1 h after consumption of 300 mL red wine (about 2.8 mg caffeic acid)) | plasma levels of caffeic acid ([1]; 1 h after consumption of 300 mL red wine, approx. conversion) | IC50 (50% growth inhibition) [2] | MFC [3] | EC50 ([4]; Acanthamoeba, after 24 h) | times higher inhibitory activity than phosphanium salts of rosmarinic acid ([4]; comparison to compounds of ref 15) |
| --- | --- | --- | --- | --- | --- | --- | --- | --- | --- | --- | --- |
| 13900 µM (≈ 2500 µg/mL) | exceeded 6900 μM and > 1200 μg/mL |  |  |  | O=C(O)C=Cc1ccc(O)c(O)c1 [CA, 3-(3,4-dihydroxyphenyl)-2-propenoic acid, reference compound] | 4.9 ± 0.3 ng/mL | approx. 27.2 nM | > 100 mg/L | 13900 µM (≈ 2500 µg/mL) | ≥ 3 mM |  |
| 57 µM |  | 7.5 × 10^−3 mol·dm^−3 | 36.4 mN·m^−1 | 0.84 nm^2 | CC(=O)Oc1ccc(/C=C/C(=O)OCCCCCC[P+](c2ccccc2)(c2ccccc2)c2ccccc2)cc1OC(C)=O [CAP 6, P,P,P-triphenyl-6-{(2E)-3-[3,4-(diacetyloxy)penyl]prop-2-enoyloxy}hexane-1-phosphanium bromide] |  |  |  | 57 µM |  | more than 15 times |
| 27 µM |  | 5.2 × 10^−3 mol·dm^−3 | 37.7 mN·m^−1 | 0.82 nm^2 | CC(=O)Oc1ccc(/C=C/C(=O)OCCCCCCCC[P+](c2ccccc2)(c2ccccc2)c2ccccc2)cc1OC(C)=O [CAP 8, P,P,P-triphenyl-8-{(2E)-3-[3,4-(diacetyloxy)penyl]prop-2-enoyloxy}okctane-1-phosphanium bromide] |  |  |  | 27 µM |  |  |
| 13 µM |  | 2.2 × 10^−3 mol·dm^−3 | 37.1 mN·m^−1 | 1.02 nm^2 | CC(=O)Oc1ccc(/C=C/C(=O)OCCCCCCCCCC[P+](c2ccccc2)(c2ccccc2)c2ccccc2)cc1OC(C)=O [CAP 10, P,P,P-triphenyl-10-{(2E)-3-[3,4-(diacetyloxy)penyl]prop-2-enoyloxy}decane-1-phosphanium bromide] |  |  |  | 13 µM |  |  |
| 25 µM |  | 1.0 × 10^−3 mol·dm^−3 | 39.4 mN·m^−1 | 1.33 nm^2 | CC(=O)Oc1ccc(/C=C/C(=O)OCCCCCCCCCCCC[P+](c2ccccc2)(c2ccccc2)c2ccccc2)cc1OC(C)=O [CAP 12, P,P,P-triphenyl-12-{(2E)-3-[3,4-(diacetyloxy)penyl]prop-2-enoyloxy}dodecane-1-phosphanium bromide] |  |  |  | 25 µM |  |  |
